In article PMC6602202, “Enteroendocrine peptides regulate feeding behavior via controlling intestinal contraction of the silkworm Bombyx mori” (PLoS ONE, 2019):

Legend:
B. mori larvae [1] = conditions: cited from earlier work
Source text: Among the feeding regulatory peptides in insects, several peptides are known as ‘brain-gut peptides’, which are expressed and produced in the brain and intestinal organs. […] These peptides may regulate not only the physiological functions related to digestion and intestinal lipid metabolisms but also the intestin ... || The myoinhibitory activities of AT and GSRYa-1 and -2 in the foregut (pharynx and esophagus) and hindgut (ileum) (Figs 5E, 5F and 6E) seem to be linked to the delay in feeding initiation in B. mori larvae (Figs 1D and 6B).

D. melanogaster [2] = conditions: cited from earlier work
Source text: Peptides having C-terminal RYamide sequences constitute a neuropeptide Y (NPY) family, which is conserved both in vertebrates and invertebrate.

[3] = system: foregut of Helicoverpa armigera; conditions: cited from earlier work
Source text: (§1) AT-producing EEs (Fig 2C and 2D) and GSRYamide-producing EEs (Fig 2E and 2F) also have the potential to deliver secretory granules containing peptidyl factors to the hemocoel side through a cellular membrane. Those EEs have similar cellular morphology to EEs releasing other arthropod neuropeptide CCAP (Crustacean cardioactive peptide) observed in the American cockroac ...

[4] = system: foregut of Lacanobia oleracea; conditions: cited from earlier work
Source text: as §1

[5] = system: hindgut of Leucophaea maderae; conditions: cited from earlier work
Source text: as §1

gut = conditions: Periplaneta americana; cited from earlier work
Source text: as §1

Schistocerca. gregaria = conditions: cited from earlier work
D. melanogaster [6] = conditions: cited from earlier work; remark: listed apart in the source
Source text: (§2) The myoinhibitory activities of AT and GSRYa-1 and -2 in the foregut (pharynx and esophagus) and hindgut (ileum) (Figs 5E, 5F and 6E) seem to be linked to the delay in feeding initiation in B. mori larvae (Figs 1D and 6B).

BNGR-A16 [7] = test: aequorin-based bioluminescent calcium assay, CHO cells expressing BNGR-A16; assay type: cell-based, Bombyx mori; conditions: aequorin luminescence 20 s, triplicates, three experiments
Experimental: (§3) Activity of the BNGR-A5 and -16 receptors were analyzed using Chinese hamster ovary (CHO) cells transiently transfected with plasmids for expression of each BNGR, calcium-sensitive reporter aequorin and chimeric G protein that couple with receptor activation to an intracellular Ca^2+-increase independent of the endogenous receptor signaling cascade. The entire open reading frames of BNGR-A5 and -16 were cloned into pcDNA3.1(+) vector (Invitrogen) with a Kozak translation initiation sequence incorporated at 5´end. Plasmids for codon optimized aequorin and chimeric G proteins were used as described previously. […]
(§4) The transfected cells were detached using PBS supplemented with 0.2% EDTA and rinsed of the culture plates with the assay medium—phenol red free DMEM/F12 with L-glutamine and 15 mM HEPES (PAN Biotech, Wimborne, Dorset, UK), 0.1% BSA (Sigma-Aldrich Co. LLC.) and 1% penicillin/streptomycin (Life Technologies). […] Emitted luminescence signal corresponding to the ligand-induced intracellular Ca^2+ release was recorded for 20 s using the GloMax-Multi+ Detection System (Promega). […]

ileum = test: Spontaneous contraction of the ileum in dissected open larvae; set-up: species or system Bombyx mori
Experimental: (§5) The opened head and abdominal portion of 2-day-old fifth-instar larvae (fed ad libitum and non-fed for 16 h) were washed twice with B. mori Ringer’s solution and incubated for 3 min at 27°C to stabilize the movement. After incubation, the contractile movements of the larval foregut and hindgut, particularly the spontaneous contraction of the pharynx and ileum (predominantly contracting area in hindgut) were observed and recorded using a digital microscope USB2.0 DigiScope II v2^TM (CHRONOS, Taipei, Taiwan). 100 μL of B. mori Ringer’s solution was added to the examined gut at 60 s after starting recording. Furthermore, 100 μL of B. mori Ringer’s solution (vehicle control) and 100 μL peptide-containing solution (10^−9–10^−5 M of peptides dissolved in B. mori Ringer’s solution) were exposed over gut at 120 s after a recording start. The contractile movements were analyzed using ImageJ software (https://imagej.net/Fiji) with the Optic flow plug-in (Gaussian window MSE). The direction of contractile movement was represented by the color and arrows described in the ‘Direction’ map. The position of the lines used for the kymograph analyses (x-y, z-w) were determined by Optic flow analyses. The waveform of the kymographs, corresponding to the visible contractions in the recorded movies, were quantified and converted to myograms. The number of contractions in 60 s was defined as the ‘contraction frequency’. Invisible contractions in the recorded movie and extremely small amplitudes in the myograms were considered as no significant contractions. The evaluation of visible contraction was defined by giving a threshold at the half length of the observed amplitude. The effect of synthetic peptides was represented by the ratio of the ‘contraction frequency’ at 60–120 s to 120–180 s (%) due to the extendedly various frequencies by individuality; the pharynx (30-40/60s) and hindgut (20-40/60s). This methodology by kymograph is substantially corresponding to the previously used assays for intestinal contraction. […]

foregut and hindgut = test: Wash-out of contraction inhibition, isolated gut; set-up: species or system Bombyx mori; conditions: washing with the vehicle without the ligands
Experimental: as §5, with “The direction of contractile movement was represented by the color and arrows described in the ‘Direction’ map.” left out, “The number of contractions in 60 s was defined as the ‘contraction frequency’.” left out, “contractions.” for “contractions. The evaluation of visible contraction was defined by giving a threshold at the half length of the observed amplitude. The effect of synthetic peptides was represented by the ratio of the ‘contraction frequency’ at 60–120 s to 120–180 s (%) due to the extendedly various frequencies by individuality; the pharynx (30-40/60s) and hindgut (20-40/60s). This methodology by kymograph is substantially corresponding to the previously used assays for intestinal contraction.”

BNGR-A16 [8] = conditions: cited from earlier work
esophagus = test: Esophageal contraction in intact transparent larvae; assay type: in vivo, Bombyx mori
Experimental: Transparent larvae were prepared by feeding an artificial diet containing 0.05% melamine (Wako Pure Chemical Industries) starting from 0-day-old fifth-instar larvae. […] The visible effect took place in 2-day-old fifth-instar larvae compared to normally fed larvae. The feeding behavioral assay of transparent larva was performed in the same way as that of normal larvae. Each transparent larva was surrounded with a soft sponge and held with both sides by two slide glasses. Transmitted light enabled to illuminate the shape and movement of the shadowed esophagus portion. The contraction of foregut, particularly ‘forward contraction wave’ and ‘peristaltic squeeze’ at the esophagus were observed using a digital microscope to measure the number of contractions per minute. The ‘peristaltic squeezes’ at 8 h and 16 h in non-fed larvae were unmeasurable because of the limit of detection in our observation using digital microscope. 100 μL of distilled water (vehicle control) and 100 μL peptide-containing solution (10^−7–10^−4 M of peptides dissolved in distilled water) were injected dorsolaterally into the hemolymph. After injection, the numbers of contractions per minute of the esophagus were counted from the data of 3 min observation. Statistical analysis was performed using a one-way ANOVA, then a post hoc Dunnett’s test. Reproducibility was confirmed at least twice by assay using different populations of larvae.

[9] = system: foregut, midgut and hindgut; conditions: other insect species; 48 (foregut), 27, 49 (midgut), 50, 51 (hindgut); cited from earlier work
Source text: AT was originally isolated from extracts of heads of pharate adult tobacco hornworm, Manduca sexta as an allatoregulatory peptide. […] Consistently, it is possible in other insect species that ...

B. mori larvae [10] = test: Feeding behavioral assay (latency to first bite), 2-day-old fifth-instar larvae; assay type: in vivo, Bombyx mori; conditions: 100 μL injected dorsolaterally into the hemolymph, after 16 h diet deprivation, n = 3
Experimental: A part of the eluents of the fractions from RP-HPLC as well as synthetic peptide solutions was evaporated to dryness and dissolved in 100 μL distilled water just prior to the bioassay. The feeding cycles of 2-day-old fifth-instar B. mori larvae were synchronized by diet deprivation for 16 h. After diet deprivation, the larvae were anesthetized by submerging in icy water for 15 min. Then, 100 μL sample was injected dorsolaterally into the hemolymph. After injection, the larvae were placed in front of artificial diet blocks, and then the latency to their first bites as the initiation of feeding (first bite) after sample-injection was measured as reported previously. Statistical analysis was performed using a one-way analysis of variance (one-way ANOVA), then a post hoc Dunnett’s test. Reproducibility was confirmed at least twice by assays using different populations of larvae.

pharynx = test: Spontaneous contraction of the pharynx in dissected open larvae; set-up: species or system Bombyx mori; conditions: 10^−9–10^−5 M, 27°C, n = 5
Experimental: as §5, with “The direction of contractile movement was represented by the color and arrows described in the ‘Direction’ map.” left out, “The number of contractions in 60 s was defined as the ‘contraction frequency’.” left out, “contractions.” for “contractions. The evaluation of visible contraction was defined by giving a threshold at the half length of the observed amplitude. The effect of synthetic peptides was represented by the ratio of the ‘contraction frequency’ at 60–120 s to 120–180 s (%) due to the extendedly various frequencies by individuality; the pharynx (30-40/60s) and hindgut (20-40/60s). This methodology by kymograph is substantially corresponding to the previously used assays for intestinal contraction.”

BNGR-A5 = test: aequorin-based bioluminescent calcium assay, CHO cells expressing BNGR-A5; assay type: cell-based, Bombyx mori; conditions: aequorin luminescence 20 s, triplicates, three experiments
Experimental: as §3, §4

intestinal contractions = conditions: cited from earlier work
Source text: as §2

[11] = 10^−7–10^−4 M, 100 μL injected dorsolaterally, fed ad libitum transparent larvae, counted over 3 min, P < 0.05, n = 5

Q: Which “effect on feeding initiation, peptides” value (B. mori larvae [1]) does the source give for “tachykinin-related peptides [B. mori TRPs]” here?
A: The value was “feeding acceleratory effects that can shorten the latency to the initiation of feeding”.

Q: For neuropeptide F [NPF], which “effect on larval feeding behavior” value (D. melanogaster [2]) is on record?
A: Its value is “regulate larval feeding behavior”.

Q: What does the source list for allatostatin [AST, reference compound]?
A: effect on spontaneous contraction of the foregut, H. armigera [3]: regulate spontaneous contraction of the foregut; effect on spontaneous contraction of the foregut, L. oleracea [4]: regulate spontaneous contraction of the foregut

Q: Which “effect on spontaneous contraction of the hindgut, L. maderae” value [5] does the source give for myosuppressin (leukomyosuppressin) here?
A: The value was “regulates spontaneous contraction of the foregut of Lacanobia oleracea [66] and the hindgut of Leucophaea maderae”.

Q: What about the “effect on spontaneous contraction of the foregut, L. oleracea” value [4] of the same substance?
A: The value was “regulates spontaneous contraction of the foregut”.

Q: With Crustacean cardioactive peptide [CCAP] as the substance, how does the “effect on gut contraction” value (gut) read?
A: The value was “multiple roles, including gut contraction”.

Q: Which “effect on feeding initiation, peptides” value (B. mori larvae [1]) does the source give for short neuropeptide F (sNPF) -2 [sNPF-2] here?
A: Its value is “feeding acceleratory effects that can shorten the latency to the initiation of feeding”.

Q: With short neuropeptide F [sNPF] as the substance, how does the “effect on food intake” value (Schistocerca. gregaria) read?
A: Its value is “an inhibitory effect on food intake”.

Q: And the “effect on feeding initiation, peptides” value (B. mori larvae [1])?
A: The value was “feeding acceleratory effect”.

Q: What about the “effect on food intake and body weight” value (D. melanogaster [6]) of the same substance?
A: Its value is “stimulates food intake and body weight gain”.

Q: Which “response, BNGR-A16” value (BNGR-A16 [7]) does the source give for allatotropin here?
A: The value was “response of BNGR-A5 (Fig 3 an arrow) as well as BNGR-A16 to AT”.

Q: And the “contraction of ileum (movie)” value (ileum; 10^−6 M exposed at 120 s, larvae fed ad libitum)?
A: Its value is “the contraction of ileum was inhibited”.

Q: And the “relative frequency of contraction, ileum, fed ad libitum” value (ileum; larvae fed ad libitum, 10^−9–10^−5 M, 27°C, 60–120 s vs 120–180 s, n = 5)?
A: Its value is “decreased relative frequency of contraction”.

Q: What about the “relative frequency of contraction, ileum, non-fed” value (ileum; larvae non-fed for 16 h, 10^−9–10^−5 M, 27°C, n = 5) of the same substance?
A: The value was “decreased the frequency”.

Q: And the “reversibility of inhibition on washing” value (foregut and hindgut)?
A: Its value is “did not resume even after washing”.

Q: What about the AT receptor assignment (BNGR-A16 [8]) of the same substance?
A: Its AT receptor assignment is “the AT receptor is assigned to be BNGR-A16”.

Q: What about the “forward contraction wave and peristaltic squeeze (movie)” value (esophagus; 10^−5 M solution injected dorsolaterally into the hemolymph) of the same substance?
A: Its value is “the forward contraction wave and peristaltic squeeze were inhibited”.

Q: What about the “number of forward contraction waves” value (esophagus; [11]) of the same substance?
A: The value was “decreased numbers of forward contraction waves and peristaltic squeezes in a dose-response manner”.

Q: What about the “number of peristaltic squeezes” value (esophagus; [11]) of the same substance?
A: The value was “decreased numbers of forward contraction waves and peristaltic squeezes in a dose-response manner”.

Q: And the “myoregulatory activity on foregut, midgut and hindgut” value [9]?
A: Its value is “myoregulatory activities”.

Q: What about the “effect on latency to the first bite, synthetic peptides” value (B. mori larvae [10]; significant by one-way ANOVA (P < 0.01)) of the same substance?
A: The value was “prolonged the latency to the first bite in a dose-dependent manner”.

Q: What about the “ED50, prolongation of the latency to the first bite” value (B. mori larvae [10]; synthetic peptides) of the same substance?
A: The value was 1000 nM.

Q: What about the “relative frequency of contraction, pharynx, fed ad libitum” value (pharynx; larvae fed ad libitum, 60–120 s vs 120–180 s) of the same substance?
A: Its value is “decreased relative frequency of contraction”.

Q: What about the “relative frequency of contraction, pharynx, non-fed” value (pharynx; larvae non-fed for 16 h) of the same substance?
A: Its value is “decreased the frequency”.

Q: What about the “effect on spontaneous contraction of the foregut, H. armigera” value [3] of the same substance?
A: The value was “regulate spontaneous contraction of the foregut”.

Q: And the “effect on spontaneous contraction of the foregut, L. oleracea” value [4]?
A: The value was “regulate spontaneous contraction of the foregut”.

Q: And the “affinity, BNGR-A5” value (BNGR-A5)?
A: Its value is “much higher affinity to AT than BNGR-A16”.

Q: And the “effect on intestinal contractions, other Lepidopteran species” value (intestinal contractions)?
A: Its value is “stimulatory effect”.
